Assay results from US12459951B2, “Compounds that interact with RAS superfamily proteins for treatment of cancers, inflammatory diseases, rasopathies, and fibrotic disease” (SHY Therapeutics, LLC, priority 2022, dated 2025).

Key:
[1] = Kinetic Solubility Assay in pH 7.4 Buffer + 2% DMSO; type: physicochemical; conditions: phosphate-buffered saline pH 7.4 with 2% DMSO, aqueous buffer, kinetic from dmso stock, 25° C., two hours
Method: Biological Example 9: Kinetic Solubility
Kinetic solubility assay in pH 7.4 Buffer+2% DMSO (“Kinetic Solubility Assay) was performed according to the following protocol: Briefly, using a 20 mM stock solution of the tested compounds in 100% DMSO, dilutions were prepared to a theoretical concentration of 400 μM in duplicates in phosphate-buffered saline pH 7.4 (138 mM NaCl, 2.7 mM KCl, 10 mM K-phosphate) with 2% final DMSO. The tested compounds dilutions in PBS were further allowed to equilibrate at 25° C. on a thermostatic shaker for two hours and then filtered through HTS filter plates using a vacuum manifold. The filtrates of the test compounds were diluted 2-fold with acetonitrile with 2% DMSO before measuring.
In parallel, using a 20 mM stock solution of the tested compounds in 100% DMSO, dilutions were prepared to theoretical concentrations of 0 μM (blank), 10 μM, 25 μM, 50 μM, 100 μM, and 200 μM in 50% acetonitrile/PBS with 2% final DMSO to generate calibration curves. Ondansetron was used as a reference compound to control proper assay performance. 200 μL of each sample was transferred to a 96-well plate and measured in the 230-550 nm range with a 5 nm step.
The concentrations of compounds in PBS filtrate are calculated using a dedicated Microsoft Excel calculation script. Proper absorbance wavelengths for calculations are selected for each compound manually based on absorbance maximums (absolute absorbance unit values for the minimum and maximum concentration points within the 0-3 OD range). Each final dataset is visually evaluated by the operator, and goodness of fit (R2) is calculated for each calibration curve. The effective range of this assay is approximately 2-400 μM and the compounds returning values close to the upper limit of the range may have higher actual solubility (e.g., 5′-deoxy-5-fluorouridine).
Table 8 show kinetic solubility data for selected compounds tested in the Kinetic Solubility assay described above.

Erk1/2 phosphorylation = test: Erk1/2 Phosphorylation Assay (western blot), Panc-1; type: cell-based, human; conditions: at 10 μM, * = activation
Method in brief: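 KRas G12D Panc-1 cells were treated 6 h at 37° C with compound at 10 μM or serial dilutions for IC50 (0.3% DMSO). In method 1, cells were serum-starved overnight (0.5% FBS) and then given 1.5 ng/ml EGF for 15 min. In method 2, cells stayed in 10% FBS without stimulation. Lysate phospho-Erk1/2 (Thr202/Tyr204) was read by western blot.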

[2] = Mouse Liver Microsome Metabolic Stability Assay; type: in vitro ADME; conditions: pH 7.4, Mouse liver microsomes, 37° C., NADPH, read-out: t½
Method: Biological Example 10: Assessment of Metabolic Stability in Mouse Liver Microsomes
Metabolic Stability Assay: Microsomal incubations were carried out in 96-well plates in 5 aliquots of 30 μL each (one for each time point). Liver microsomal incubation medium comprised of phosphate buffer (100 mM, pH 7.4), MgCl2 (3.3 mM), NADPH (3 mM), glucose-6-phosphate (5.3 mM), glucose-6-phosphate dehydrogenase (0.67 units/ml) with 0.42 mg of liver microsomal protein per mL. In the control reactions the NADPH-cofactor system was substituted with phosphate buffer. Test compounds (2 μM, final solvent concentration 1.6%) were incubated with microsomes at 37° C., shaking at 100 rpm. Each reaction was performed in duplicates. Five time points over 40 minutes were analyzed. The reactions were stopped by adding 5 volumes of methanol containing internal standard to incubation aliquots, followed by protein sedimentation by centrifuging at 5500 rpm for 4 minutes. Supernatants were analyzed using the HPLC system coupled with tandem mass spectrometer.
The elimination constant (kel), half-life (t1/2) and intrinsic clearance (Clint) were determined in plot of […] versus time, using linear regression analysis:
In order to indicate the quality of the linear regression analysis, the R (correlation coefficient) values are provided. In some cases, the last time point is excluded from the calculations to ensure acceptable logarithmic linearity of decay.
Table 9 show metabolic stability data for selected compounds tested in the Mouse Liver Microsome Metabolic Stability assay described above.

IL6 = test: IL-6 Quantification Assay (ELISA), LPS-stimulated RAW 264.7; type: cell-based; parameters: inhibition: dose or concentration left out as unconfirmed; conditions: Mus musculus, RAW264.7; read-out: IL-6: % inh.

solubility at 2 h [1] [µM]	half-life at 2 µM [2] [min]	SMILES	% inh of Erk1/2 phosphorylation in Panc-1 (Erk1/2 phosphorylation)	inhibition (IL6) [%]
10 to 30	> 10	Cc1c(-c2ccn(C)n2)cn2nc(-c3nccn3C)nc(Nc3cc4n(n3)CCO4)c12 [Compound 124, N-(5-Methyl-2-(1-methyl-1H-imidazol-2-yl)-6-(1-methyl-1H-pyrazol-3-yl)pyrrolo[2,1-f][1,2,4]triazin-4-yl)-2,3-dihydropyrazolo[5,1-b]oxazol-6-amine]	C* (46-84% activation)	25 to 49
10 to 30	< 10	COc1ccnc(Nc2nc(-c3nccn3C)nn3cc(-c4cccnc4)c(C)c23)n1 [Compound 158, N-(4-Methoxy-pyrimidin-2-yl)-5-methyl-2-(1-methyl-1H-imidazol-2-yl)-6-(pyridin-3-yl)pyrrolo[2,1-f][1,2,4]triazin-4-amine]	A (1-25% inhibition)	1 to 24
10 to 30	> 10	Cc1c(-c2ccn(C3CC3)n2)cn2nc(-c3nccn3C)nc(Nc3cc(N(C)C)ccn3)c12 [Compound 145, N^2-(6-(1-Cyclopropyl-1H-pyrazol-3-yl)-5-methyl-2-(1-methyl-1H-imidazol-2-yl)pyrrolo[2,1-f][1,2,4]triazin-4-yl)-N^4,N^4-dimethylpyridine-2,4-diamine]	C* (46-84% activation)	50 to 74
< 10	< 10	Cc1c(-c2ccn(C3CC3)n2)cn2nc(-c3nccn3C)nc(Nc3ccccn3)c12 [Compound 143, 6-(1-Cyclopropyl-1H-pyrazol-3-yl)-5-methyl-2-(1-methyl-1H-imidazol-2-yl)-N-(pyridin-2-yl)pyrrolo[2,1-f][1,2,4]triazin-4-amine]	D* (85-100% activation)	75 to 100
